What was measured:
tumor cells = assay: Macrophage-mediated tumor cytotoxicity, target cells not named; format: cell-based; settings: PEM with 50 umol/well MLV (0.1 mg JBT3002/300 μM phospholipid) in the presence of 2 mM NMA
Experimental: Cytotoxicity was assayed by measuring release of radioactivity from target cell DNA as described previously (Dong Z, et al. J Exp Med (1993) 177:1071-7). Briefly, tumor target cells in their exponential growth phase were incubated in medium containing 0.25 μCi/ml of [^3H]TdR (sp. Act. 2 Ci/mmol) (ICN Biomedicals, Inc., Irvine, Calif.) for 24 h. The cells were washed three times with HBSS to remove unbound radioactivity and then harvested by trypsinization (0.25% trypsin in 0.02% EDTA), washed, and resuspended in medium. Cells were plated (at 1×10^4/well) into wells containing control or test macrophages to achieve an E/T cell ratio of 10:1. At this density, macrophages incubated in medium (control) were not cytotoxic to neoplastic cells (Weinstein SL, et al. Proc Natl Acad Sci USA (1991) 88:4148-52; Dong Z, et al. JLeukoc Biol (1993) 53:53-60). […] The lysate was harvested with harvester 96 (Tomtec, Orange, Conn.) and counted for residual radioactivity in a liquid scintillation counter. Macrophage-mediated cytotoxicity was calculated as follows: […]
Efficient activation of macrophages by LPS requires priming by IFN-γ (Saiki I, et al. J Immunol (1985) 135:684-8). […] Tumor cytotoxicity was measured 72 h after the addition of radiolabeled tumor cells to the activated macrophages. […]

[1] = system: peritoneal exudate macrophages (PEM); assay: Nitrite (NO) production by mouse peritoneal exudate macrophages; format: cell-based; settings: PEM with 50 umol/well MLV (0.1 mg JBT3002/300 μM phospholipid) in the presence of 2 mM NMA
Experimental: Peritoneal exudate macrophages (PEM) were collected by peritoneal lavage from mice given an intraperitoneal injection of 2.0 ml of thioglycollate broth (Baltimore Biological Laboratory, Cockeysville, Md.) 4 days before harvest (Dong Z, O'Brian C A, et al. J Leukoc Biol (1993) 53:53-60; Xie K, Huang S, et al. Cancer Res (1995) 55:3123-31). The PEM were washed in Ca^+2- an Mg^2+-free HBSS and resuspended in serum-free medium: 1×10^5 cells were plated into each 38-mm^2 well of 96-2311 culture plates (Falcon Plastics, Oxnard, Calif.). After a 90-min incubation, the nonadherent cells were removed by washing with medium. More than 98% of the adherent cell populations were macrophages according to morphology and phagocytic criteria (Saiki I, et al. J Immunol (1985) 135:684-8). […] After treatment, the cultures were washed and macrophage-mediated cytotoxicity against different tumor targets was determined. […]
Nitrite accumulation in the culture supernatant was measured in a colorimetric assay as described previously (Ding A E, et al. J Immunol (1988) 141:2407-12). […] The mixtures were incubated 10 min with shaking, and A540 was measured with the use of a microplate reader (Model 3550; Bio-Rad Corp., San Francisco, Calif.). The concentration of nitrite was determined by comparing it with a standard solution of sodium nitrite in medium.

K-1735 M2 cells = assay: Macrophage-mediated cytotoxicity against K-1735 M2 cells; format: cell-based, mouse; settings: PEM activated by JBT3002
[2] = system: PEM (TNF-α, IL-1α, IL-6, NO); assay: Cytokine and nitrite production by PEM (ELISA, Griess); format: cell-based, mouse; settings: PEM treated with LPS or MLV-JBT3002, genistein 100 μM, PD-98059 10 μM, calphostin-C 250 nM
Experimental: Peritoneal exudate macrophages (PEM) were collected by peritoneal lavage from mice given an intraperitoneal injection of 1.5 ml of thioglycollate broth (Baltimore Biological Laboratory, Cockeysville, Md.) 4 days before harvest.(Saiki I, et al. J Immunol (1985) 135:684 688; Dong Z, et a.l J Leukoc Biol (1993) 53:53-60; Dong Z, J et al. J Exp Med (1993) 177:1071-1077) The PEM were washed in CA^2+- and MG^2+-free HBSS and resuspended in serum-free medium: 1×10^5 cells were plated into each 38-mm^2 well of 96-well culture plates (Falcon Plastics, Oxnard, Calif.). After a 90-minute incubation, the nonadherent cells were removed by washing them with medium. More than 98% of the adherent cell populations were macrophages according to morphology and phagocytic criteria. (Saiki I, et al. J Immunol (1985) 135:684 688)
PEM in 96-well plates at a density of 10^5 cells/well/200 μl of medium were treated as indicated in Results. The culture supernatants were harvested and used immediately for the cytokine assays or stored at −70° C. For cell lysates, supernatants were removed and macrophages were frozen-thawed in fresh medium. Specific cytokines in the supernatants or cell lysates (diluted at 1:5 or 1:10) were measured by ELISA kits according to manufacturer's instructions.
The nitrite concentration in culture supernatants was determined by a microplate assay as described previously. Briefly, 50-μl samples harvested from PEM-conditioned medium were treated with an equal volume of Griess reagent (1% sulfanilamide, 0.1% naphthylene diamine dihydrochloride, and 2.5% H3PO4) at room temperature for 10 minutes. The absorbance at 540 nm was monitored with a microplate reader. The nitrite concentration was determined using sodium nitrite as a standard.

| effect of kinase inhibitor on production of NO [2] | effect of kinase inhibitor on production of TNF-α ([2]; H-89) | SMILES | tumor cytotoxicity (tumor cells) [%] | NO [1] [µM] | minimal inhibition dose (K-1735 M2 cells) [µM] |
| --- | --- | --- | --- | --- | --- |
| – | – | CNC(=N)NCCC[C@H](N)C(=O)O [NMA, N^G-monomethyl-L-arginine] | 1.3 | 1.6 | – |
| significantly inhibited | significantly inhibited | O=c1c(-c2ccc(O)cc2)coc2cc(O)cc(O)c12 [genistein, Genistein] | – | – | 30 to 40 |

From patent publication US20030017976A1, “Therapeutic properties of liposome-encapsulated immunomodulators” (priority 1998, published 2003)
